What was measured:
barnyardgrass = assay: Test A barnyardgrass; format: in vivo, Echinochloa crus-galli; conditions: 0 to 10 scale where 0 is no effect and 10 is complete control
Outline: (§1)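 Visual injury score, 0 (no effect) to 10 (complete control), vs untreated controls at ~11 d in greenhouse. Pre: soil drench on sandy loam. Post: spray to runoff, 1–2 leaf stage.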

crabgrass [1] = assay: Test A crabgrass; format: in vivo, Digitaria spp.; conditions: 0 to 10 scale where 0 is no effect and 10 is complete control
Outline: as §1

morningglory [2] = assay: Test A morningglory; format: in vivo, Ipomoea spp.; conditions: 0 to 10 scale where 0 is no effect and 10 is complete control
Description: (§2) Seeds of barnyardgrass (Echinochloa crus-galli), crabgrass (Digitaria spp.), morningglory (Ipomoea spp.), and velvetleaf (Abutilon theophrasti) were planted into a sandy loam soil and treated preemergence by soil drench with test chemicals formulated in a non-phytotoxic solvent mixture which includes a surfactant At the same time, these crop and weed species were also treated postemergence sprayed to runoff, with test chemicals formulated in the same manner.
(§3) Plants ranged in height from two to eighteen cm and were in the one to two leaf stage for the postemergence treatment. Treated plants and untreated controls were maintained in a greenhouse for approximately eleven days, after which all treated plants were compared to untreated controls and visually evaluated for injury. Plant response ratings, summarized in Table A, are based on a 0 to 10 scale where 0 is no effect and 10 is complete control.

velvetleaf [3] = assay: Test A velvetleaf; format: in vivo, Abutilon theophrasti; conditions: 0 to 10 scale where 0 is no effect and 10 is complete control
Description: as §2, §3

bedstraw = assay: Test B pre/postemergence bedstraw; format: in vivo, Galium aparine; conditions: Preemergence
Outline: (§4)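 Response is a visual 0-to-10 score relative to untreated plants, where 0 means no effect and 10 means complete control, taken twelve to sixteen days after application. Treatments went onto soil at planting and onto foliage of 1- to 4-leaf plants, using a surfactant-containing non-phytotoxic solvent.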

blackgrass = assay: Test B pre/postemergence blackgrass; format: in vivo, Alopecurus myosuroides; conditions: Preemergence
Outline: as §4

surinam grass = assay: Test B pre/postemergence surinam grass; format: in vivo, Brachiaria decumbens; conditions: Preemergence
Outline: as §4

cocklebur = assay: Test B pre/postemergence cocklebur; format: in vivo, Xanthium strumarium; conditions: Preemergence
Outline: as §4

corn = assay: Test B pre/postemergence corn; format: in vivo, Zea mays; conditions: Preemergence
Outline: as §4

crabgrass [4] = assay: Test B pre/postemergence crabgrass; format: in vivo, Digitaria sanguinalis; conditions: Preemergence
Outline: as §4

giant foxtail = assay: Test B pre/postemergence giant foxtail; format: in vivo, Setaria faberii; conditions: Preemergence
Outline: as §4

morningglory [5] = assay: Test B pre/postemergence morningglory; format: in vivo, Ipomoea hederacea; conditions: Preemergence
Outline: as §4

pigweed = assay: Test B pre/postemergence pigweed; format: in vivo, Amaranthus retroflexus; conditions: Preemergence
Outline: as §4

rape = assay: Test B pre/postemergence rape; format: in vivo, Brassica napus; conditions: Preemergence
Outline: as §4

soybean = assay: Test B pre/postemergence soybean; format: in vivo, Glycine max; conditions: Preemergence
Outline: as §4

sugar beet = assay: Test B pre/postemergence sugar beet; format: in vivo, Beta vulgaris; conditions: Preemergence
Outline: as §4

velvetleaf [6] = assay: Test B pre/postemergence velvetleaf; format: in vivo, Abutilon theophrasti; conditions: Preemergence
Outline: as §4

wheat = assay: Test B pre/postemergence wheat; format: in vivo, Triticum aestivum; conditions: Preemergence
Outline: as §4

wild oat = assay: Test B pre/postemergence wild oat; format: in vivo, Avena fatua; conditions: Preemergence
Outline: as §4

purple nutsedge = assay: Test B pre/postemergence purple nutsedge; format: in vivo, Cyperus rotundus; conditions: Preemergence
Outline: as §4

rice = assay: Test B flood test rice; format: in vivo, Oryza sativa
Outline: (§5)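 Read-out is a visual response score from 0 (no effect) to 10 (complete control), assigned by comparison with untreated controls. Treatment was applied at the 2-leaf stage, and plants stayed in the greenhouse for twelve to sixteen days before scoring.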

smallflower flatsedge = assay: Test B flood test smallflower flatsedge; format: in vivo, Cyperus difformis
Outline: as §5

duck salad = assay: Test B flood test duck salad; format: in vivo, Heteranthera limosa
Outline: as §5

bamyardgrass = assay: Test B flood test barnyardgrass; format: in vivo, Echinochloa crus-galli
Outline: as §5

[7] = Rate 62 g/ha, scale of 0 to 10 where 0 is no effect and 10 is complete control
[8] = Rate 125 g/ha, scale of 0 to 10 where 0 is no effect and 10 is complete control
[9] = Rate 250 g/ha, scale 0 (no effect) to 10 (complete control)
[10] = Rate 500 g/ha, scale of 0 to 10 where 0 is no effect and 10 is complete control
[11] = Pre-emergence, Rate 62 g/ha, scale 0 to 10, 0 is no effect, 10 is complete control
[12] = Rate 125 g/ha, Pre-emergence section (flood test species), scale 0 to 10, 0 no effect, 10 complete control
[13] = Rate 250 g/ha, Pre-emergence (flood test species), scale 0 to 10, 0 is no effect, 10 is complete control
[14] = Rate 500 g/ha, Pre-emergence section of Table B, 0 to 10 scale (0 no effect, 10 complete control)

Compound: CC(C)N(C(=O)n1oc(=O)[nH]c1=O)c1ccc(Cl)cc1 [Compound 377]
- Plant response rating, Barnyardgrass (barnyardgrass; Postemergence, Rate 1000 g/ha): 0
- Plant response rating, Barnyardgrass (barnyardgrass; Pre-emergence, Rate 2000 g/ha): 0
- Plant response rating, Crabgrass (crabgrass [1]; Postemergence, Rate 1000 g/ha): 0
- Plant response rating, Crabgrass (crabgrass [1]; Pre-emergence, Rate 2000 g/ha): 0
- Plant response rating, Morningglory (morningglory [2]; Postemergence, Rate 1000 g/ha): 0
- Plant response rating, Morningglory (morningglory [2]; Pre-emergence, Rate 2000 g/ha): 0
- Plant response rating, Velvetleaf (velvetleaf [3]; Postemergence, Rate 1000 g/ha): 0
- Plant response rating, Velvetleaf (velvetleaf [3]; Pre-emergence, Rate 2000 g/ha): 0

Compound: CC(C)N(C(=O)n1oc(=O)n(CC2=NOCC2)c1=O)c1ccccc1 [Compound 706]
- Bedstraw plant response rating (bedstraw; [7]): 0
- Plant response rating, Bedstraw (bedstraw; [8]): 0
- Bedstraw plant response rating (bedstraw; [9]): 0
- Blackgrass plant response rating (blackgrass; [7]): 8
- Plant response rating, Blackgrass (blackgrass; [8]): 8
- Blackgrass plant response rating (blackgrass; [9]): 10
- Plant response rating, Blackgrass (blackgrass; [10]): 10
- B. signalgrass plant response rating (surinam grass; [7]): 2
- Plant response rating, B. signalgrass (surinam grass; [8]): 8
- B. signalgrass plant response rating (surinam grass; [9]): 8
- Plant response rating, B. signalgrass (surinam grass; [10]): 10
- Cocklebur plant response rating (cocklebur; [7]): 0
- Plant response rating, Cocklebur (cocklebur; [8]): 0
- Cocklebur plant response rating (cocklebur; [9]): 0
- Plant response rating, Cocklebur (cocklebur; [10]): 0
- Corn plant response rating (corn; [7]): 0
- Plant response rating, Corn (corn; [8]): 0
- Corn plant response rating (corn; [9]): 0
- Crabgrass plant response rating (crabgrass [4]; [7]): 5
- Plant response rating, Crabgrass (crabgrass [4]; [8]): 5
- Crabgrass plant response rating (crabgrass [4]; [9]): 8
- Giant foxtail plant response rating (giant foxtail; [7]): 6
- Plant response rating, Giant foxtail (giant foxtail; [8]): 6
- Giant foxtail plant response rating (giant foxtail; [9]): 7
- Morningglory plant response rating (morningglory [5]; [7]): 1
- Plant response rating, Morningglory (morningglory [5]; [8]): 1
- Morningglory plant response rating (morningglory [5]; [9]): 1
- Redroot pigweed plant response rating (pigweed; [7]): 8
- Plant response rating, Redroot pigweed (pigweed; [8]): 8
- Redroot pigweed plant response rating (pigweed; [9]): 10
- Rape plant response rating (rape; [7]): 0
- Plant response rating, Rape (rape; [8]): 0
- Rape plant response rating (rape; [9]): 3
- Soybean plant response rating (soybean; [7]): 0
- Plant response rating, Soybean (soybean; [8]): 0
- Soybean plant response rating (soybean; [9]): 0
- Sugarbeets plant response rating (sugar beet; [7]): 0
- Plant response rating, Sugarbeets (sugar beet; [8]): 4
- Sugarbeets plant response rating (sugar beet; [9]): 4
- Velvetleaf plant response rating (velvetleaf [6]; [7]): 0
- Plant response rating, Velvetleaf (velvetleaf [6]; [8]): 1
- Velvetleaf plant response rating (velvetleaf [6]; [9]): 5
- Wheat plant response rating (wheat; [7]): 0
- Plant response rating, Wheat (wheat; [8]): 4
- Wheat plant response rating (wheat; [9]): 5
- Wild oats plant response rating (wild oat; [7]): 4
- Plant response rating, Wild oats (wild oat; [8]): 7
- Wild oats plant response rating (wild oat; [9]): 8
- Nutsedge plant response rating (purple nutsedge; [7]): 0
- Nutsedge plant response rating (purple nutsedge; [9]): 0
- Rice plant response rating (rice; [11]): 0
- Rice plant response rating (rice; [12]): 0
- Rice plant response rating (rice; [13]): 0
- Rice plant response rating (rice; [14]): 0
- S. Flatsedge plant response rating (smallflower flatsedge; [11]): 0
- S. Flatsedge plant response rating (smallflower flatsedge; [12]): 0
- S. Flatsedge plant response rating (smallflower flatsedge; [13]): 0
- S. Flatsedge plant response rating (smallflower flatsedge; [14]): 0
- Ducksalad plant response rating (duck salad; [11]): 0
- Ducksalad plant response rating (duck salad; [12]): 0
- Ducksalad plant response rating (duck salad; [13]): 0
- Ducksalad plant response rating (duck salad; [14]): 0
- Barnyardgrass plant response rating (bamyardgrass; [11]): 0
- Barnyardgrass plant response rating (bamyardgrass; [12]): 0
- Barnyardgrass plant response rating (bamyardgrass; [13]): 0
- Barnyardgrass plant response rating (bamyardgrass; [14]): 0

From US6737383B1, “Herbicidal oxadiazolidines” (priority 1999, dated 2004)
